{"source": "paper PMC11491004", "about": "“CHF6523 data suggest that the phosphoinositide 3-kinase delta isoform is not a suitable target for the management of COPD” (Respiratory Research, 2024)", "test_system": "genes in blood and sputum", "test": "Transcriptomics (RNA-seq) in blood and sputum", "assay_type": "in vivo, human", "method": "PAXgene RNA blood samples and induced sputum samples collected in Trizol were analysed at Almac Diagnostic Services (Craigavon, Northern Ireland, UK). RNA extraction and quality assessment of the PAXGene blood and sputum samples were performed, prior to downstream next generation sequencing (NGS). To minimise any technical variability, samples were randomised into processing batches for RNA extraction and NGS library preparation.\nAfter extraction, all RNA underwent quality assessment. PAXGene RNA samples were assessed using a combination of Nanodrop (quantity) and the Agilent Tapestation (integrity), and Sputum RNA samples were assessed using the Qubit RNA assay (quantity) and Agilent Tapestation (integrity). Nanodrop was used for quantity assessment of RNA extracted from sputum in order to preserve a sample for downstream library preparation input.\nUpon successful completion of the quality assessment, samples underwent library preparation using Kapa RNA Hyperprep with Riboerase kit. PAXGene Blood RNA samples were also treated with globin depletion oligos. Following library preparation, all generated libraries underwent quality assessment (quantification via Quant-iT dsDNA high-sensitivity assay, and fragment size assessment via the Agilent Tapestation) before being loaded on to a NovaSeq 6000 and sequenced with a total read length of 2x76bp, to a read budget of 50 million paired end reads (total 100 million reads) per sample. Processing control samples were included in the processing batch. Upon completion of sequencing, the quality of sequencing was assessed for the following parameters: clusters passing filter, Q30 scores, error rate, cluster density and read distribution.\nRaw sequence data in FASTQ format were subject to a number of quality control assessment steps hosted on the DNAnexus cloud platform. Basic sequencing metrics such as GC content were calculated from unaligned reads using FastQC. Potential ribosomal RNA (rRNA) contamination was assessed using the Burrows-Wheeler Aligner (BWA) and samtools flagstat to determine the number of reads aligning to a ribosomal RNA (rRNA) sequence database. Read alignment to the human reference genome GRCh38 was then performed using StarAlign, with outputs used to calculate post-alignment quality control (QC) metrics such as duplication rate, calculated using Picard MarkDuplicates and a housekeeping coverage metric using a custom script. […] Both pre- and post alignment QC metrics were then reviewed to check for potential problems originating from the sequencing run or starting library material.\nThe aim was to identify genes that were differentially expressed in response to treatment with CHF6523 from blood and sputum samples.\nThe ANCOVA model was specified as change from pre-dose to post-dose expression as dependent variable. The independent variables were treatment (reference: placebo), patient, period, and pre-dose expression.\nFunctional enrichment was performed on those differentially expressed gene lists that had at least 20 genes with FDR<0.05 using ToppFun enrichment on the ToppGene website (https://toppgene.cchmc.org/enrichment.jsp, accessed 05 May 2023 [4]). The background of the enrichment used were those genes that were available in the original datamatrix."}
{"smiles": "C[C@@H](c1oc(=O)c2ccccc2c1-c1cccc(CN2CCN(C)CC2)c1)n1nc(-c2cncc(O)c2)c2c(N)ncnc21", "note": "[CHF6523]", "values": [{"measurement": "Differentially expressed genes in blood", "setting": "blood, RNA-seq, 24 patients", "value": "No differentially expressed genes"}, {"measurement": "|log2FC| of the six genes with |log2FC| >1", "setting": "sputum", "value": "1.019–1.067"}, {"measurement": "TLR1 log2FC", "setting": "sputum, FDR = 0.0155", "value": 0.71}, {"measurement": "TLR10 log2FC", "setting": "sputum, FDR = 0.0418", "value": 0.48}, {"measurement": "TLR6 log2FC", "setting": "sputum, FDR = 0.0451", "value": 0.52}, {"measurement": "Genes significantly differentially expressed in sputum", "setting": "sputum, RNA-seq, FDR < 0.05, more than 38,000 genes evaluated", "value": 126, "unit": "genes"}, {"measurement": "Differentially expressed genes in sputum that were upregulated", "setting": "sputum, of 126", "value": 119, "unit": "genes"}]}
